Reference: patent US5753648A, “Tricyclic benzazepine vasopressin antagonists” (American Cyanamid Company, priority 1996, dated 1998)

How the values were obtained:
Rat Hepatic V1 Receptors = Rat Hepatic V1 Receptors (Rattus norvegicus, UniProt P30560); assay: Binding Assay to Rat Hepatic V1 Receptors
Procedure, shortened: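 Rat liver plasma membranes (20 μg protein, sucrose-gradient isolated) were incubated 120 min at room temperature with [3H]vasopressin (0.8 nM as added) in Tris-HCl buffer with MgCl2, BSA and protease inhibitors. Nonspecific binding was defined with unlabeled phenylalanylvasopressin. Bound radioactivity was collected by filtration and counted by scintillation, and IC50 was from competition analysis.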

oxytocin receptors = target: T1, oxytocin receptors (Rattus norvegicus, UniProt P70536); assay: Oxytocin Receptor Binding
T1 sequence (P70536 1-388): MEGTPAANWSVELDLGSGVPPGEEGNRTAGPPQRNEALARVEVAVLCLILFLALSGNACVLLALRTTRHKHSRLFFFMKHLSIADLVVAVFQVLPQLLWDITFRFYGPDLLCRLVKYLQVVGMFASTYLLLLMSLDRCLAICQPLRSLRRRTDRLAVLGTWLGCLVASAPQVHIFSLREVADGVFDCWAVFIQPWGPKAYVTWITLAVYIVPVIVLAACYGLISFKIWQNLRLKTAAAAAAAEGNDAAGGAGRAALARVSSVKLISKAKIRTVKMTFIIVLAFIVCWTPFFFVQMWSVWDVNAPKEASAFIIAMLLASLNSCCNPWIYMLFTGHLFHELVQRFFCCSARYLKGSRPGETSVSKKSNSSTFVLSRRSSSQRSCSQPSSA
Description: Female Sprague-Dawley rats weighing approximately 200-250 g are injected intramuscularly (i.m.) with 0.3 mg/kg of body weight of diethylstilbestrol (DES). The rats are sacrificed 18 hours later under pentobarbital anesthesia. The uteri are dissected out, cleaned of fat and connective tissues and rinsed in 50 ml of normal saline. The tissue pooled from six rats is homogenized in 50 ml of 0.01 mM Tris.HCl, containing 0.5 mM dithiothreitol and 1.0 mM EDTA, adjusted to pH 7.4, using a polytron at setting 6 with three passes of 10 sec each. The homogenate is passed through two (2) layers of cheesecloth and the filtrate centrifuged at 1000×g for 10 min. The clear supernatant is removed and recentrifuged at 165,000×g for 30 min. The resulting pellet containing the oxytocin receptors is resuspended in 50.0 mM Tris.HCl containing 5.0 mM MgCl2 at pH 7.4, to give a protein concentration of 2.5 mg/ml of tissue suspension. This preparation is used in subsequent binding assays with [^3 H]Oxytocin.
Binding of 3,5-[^3 H]Oxytocin ([^3 H]OT) to its receptors is done in microtiter plates using [^3 H]OT, at various concentrations, in an assay buffer of 50.0 mM Tris.HCl, pH 7.4 and containing 5.0 mM MgCl2, and a mixture of protease inhibitors: BSA, 0.1 mg; aprotinin, 1.0 mg; 1,10-phenanthroline, 2.0 mg; trypsin, 10.0 mg; and PMSF, 0.3 mg per 100 ml of buffer solution. Non-specific binding is determined in the presence of 1.0 uM unlabeled OT. The binding reaction is terminated after 60 min., at 220° C., by rapid filtration through glass fiber filters using a Brandel® cell harvester (Bio-medical Research and Development Laboratories, Inc., Gaithersburg, Md.). Competition experiments are conducted at equilibrium using 1.0 nM [^3 H]OT and varying the concentration of the displacing agents. The concentrations of agent displacing 50% of [^3 H]OT at its sites (IC50) are calculated by a computer assisted LUNDON-2 program (LUNDON SOFTWARE INC., Ohio, USA).

[1] = target: T2, Human V2 Vasopressin Receptor (Homo sapiens, UniProt P30518); assay: Binding to Membranes of Mouse Fibroblast Cell Line (LV-2) Transfected with the cDNA Expressing the Human V2 Vasopressin Receptor; conditions: ** LV-2 cells transfected with human V2 receptor cDNA; read-out: V2 IC50 (**human V2 receptor)
T2 construct: expressed in transfected cells; host or cells: mouse fibroblast cell line LV-2
Description: Binding to Membranes of Mouse Fibroblast Cell Line (LV-2) Transfected with the cDNA Expressing the Human V2 Vasopressin Receptor Membrane Preparation
Flasks of 175 ml capacity, containing attached cells grown to confluence, are cleared of culture medium by aspiration. The flasks containing the attached cells are rinsed with 2×5 ml of phosphate buffered saline (PBS) and the liquid aspirated off each time. Finally, 5 ml of an enzyme free dissociation Hank's based solution (Specialty Media, Inc., Lafayette, N.J.) is added and the flasks are left undisturbed for 2 min. The content of all flasks is poured into a centrifuge tube and the cells pelleted at 300×g for 15 min. The Hank's based solution is aspirated off and the cells homogenized with a polytron at setting #6 for 10 sec in 10.0 mM Tris.HCl buffer, pH 7.4 containing 0.25M sucrose and 1.0 mM EDTA. The homogenate is centrifuged at 1500×g for 10 min to remove ghost membranes. The supernatant fluid is centrifuged at 100,000×g for 60 min to pellet the receptor protein. Upon completion, the pellet is resuspended in a small volume of 50.0 mM Tris.HCl buffer, pH 7.4. The protein content is determined by the Lowry method and the receptor membranes are suspended in 50.0 mM Tris.HCl buffer containing 0.1 mM phenylmethylsulfonylfluoride (PMSF) and 0.2% bovine serum albumin (BSA) to give 2.5 mg receptor protein per ml of suspension.
For binding experiments, the following is added in μl volume to wells of a 96 well format of a microtiter plate: 100.0 μl of 100.0 mM Tris.HCl buffer containing 0.2% heat inactivated BSA, 10.0 mM MgCl2 and a mixture of protease inhibitors: leupeptin, 1.0 mg %; aprotinin, 1.0 mg %; 1,10-phenanthroline, 2.0 mg %; trypsin inhibitor, 10.0 mg % and 0.1 mM PMSF, 20.0 μl of [^3 H] Arginine^8, vasopressin (S.A. 75.0 Ci/mmole) at 0.8 nM and the reaction initiated by the addition of 80.0 μl of tissue membranes (200.0 μg tissue protein). The plates are left undisturbed on the bench top for 120 min to reach equilibrium. Non specific binding is assessed in the presence of 1.0 μm of unlabeled ligand, added in 20 μl volume. For test compounds, these are solubilized in 50% dimethylsulfoxide (DMSO) and added in 20.0 μl volume to a final incubation volume of 200 μl. Upon completion of binding, the content of each well is filtered off, using a Brandel® cell Harvester (Gaithersburg, Md.). The radioactivity trapped on the filter disk by the ligand-receptor complex is assessed by liquid scintillation counting in a Packard LS Counter, with an efficiency of 65% for tritium. The data are analyzed for IC50 values by the LUNDON-2 program for competition (LUNDON SOFTWARE, Ohio).

T2 sequence (P30518 whole entry): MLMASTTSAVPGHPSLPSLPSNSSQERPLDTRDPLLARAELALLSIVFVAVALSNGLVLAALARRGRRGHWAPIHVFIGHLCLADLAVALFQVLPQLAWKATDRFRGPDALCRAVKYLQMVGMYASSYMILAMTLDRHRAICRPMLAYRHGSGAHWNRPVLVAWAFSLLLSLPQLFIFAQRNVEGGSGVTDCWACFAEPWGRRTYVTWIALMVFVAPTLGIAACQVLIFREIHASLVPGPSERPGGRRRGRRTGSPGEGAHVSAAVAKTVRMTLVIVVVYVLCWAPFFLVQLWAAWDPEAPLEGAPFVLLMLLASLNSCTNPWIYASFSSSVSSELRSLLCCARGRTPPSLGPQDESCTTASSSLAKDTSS
Chain of Rat Hepatic V1 Receptors (P30560 whole entry): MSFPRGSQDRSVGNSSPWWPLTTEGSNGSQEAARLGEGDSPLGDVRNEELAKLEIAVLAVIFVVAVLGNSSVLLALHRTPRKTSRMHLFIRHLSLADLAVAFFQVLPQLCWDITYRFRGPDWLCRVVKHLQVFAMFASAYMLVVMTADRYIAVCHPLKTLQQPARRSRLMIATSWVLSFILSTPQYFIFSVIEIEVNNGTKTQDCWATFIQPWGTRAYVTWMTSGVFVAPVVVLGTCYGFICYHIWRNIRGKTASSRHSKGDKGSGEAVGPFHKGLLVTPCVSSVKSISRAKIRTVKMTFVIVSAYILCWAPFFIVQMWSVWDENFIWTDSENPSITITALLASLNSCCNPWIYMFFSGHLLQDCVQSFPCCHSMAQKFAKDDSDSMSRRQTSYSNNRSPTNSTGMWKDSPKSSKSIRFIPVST

With `Cc1ccc(F)cc1C(=O)Nc1ccc(C(=O)N2Cc3cccn3Cc3ccccc32)cn1` [Example 1, N-[5-(5H-Pyrrolo[2,1-c][1,4]benzodiazetin-10(11H)-ylcarbonyl)-2-pyridinyl]-5-fluoro-2-methylbenzamide] the IC50 (Rat Hepatic V1 Receptors) was 33 nM, the inhibition at 10 µM (oxytocin receptors; dose 10 μM) was 92% and the IC50 (oxytocin receptors; rat uterine membranes, [3H]oxytocin) was 200 nM. It also gave an IC50 [1] of 5 nM.
